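Cultured in 96-well plates, cells were exposed to test compound for 48 hours across five concentrations. GI50: concentration for 50% inhibition of growth. TGI is the concentration that stops growth completely.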
Experiments:
Experiment in all cases: DTP human tumour cell line panel, 48 h
HS 578T breast = test system: HS 578T breast
NCI-H226 lung = test system: NCI-H226 lung
MDA-MB-231 breast = test system: MDA-MB-231 breast
EKVX NSCLC = test system: EKVX NSCLC
MALME-3M melanoma = test system: MALME-3M melanoma
SK-MEL-5 melanoma = test system: SK-MEL-5 melanoma
OVCAR-8 ovarian = test system: OVCAR-8 ovarian
SK-MEL-28 melanoma = test system: SK-MEL-28 melanoma
NCI-H522 lung = test system: NCI-H522 lung
HOP-92 NSCLC = test system: HOP-92 NSCLC

Row | SMILES | GI50 (HS 578T breast) | TGI (HS 578T breast) | GI50 (NCI-H226 lung) | TGI (NCI-H226 lung) | GI50 (MDA-MB-231 breast) | TGI (MDA-MB-231 breast) | GI50 (EKVX NSCLC) | TGI (EKVX NSCLC) | GI50 (MALME-3M melanoma) | TGI (MALME-3M melanoma) | GI50 (SK-MEL-5 melanoma) | TGI (SK-MEL-5 melanoma) | GI50 (OVCAR-8 ovarian) | TGI (OVCAR-8 ovarian) | GI50 (SK-MEL-28 melanoma) | TGI (SK-MEL-28 melanoma) | GI50 (NCI-H522 lung) | TGI (NCI-H522 lung) | GI50 (HOP-92 NSCLC) | TGI (HOP-92 NSCLC)
1 | CC(C)(C)c1cc(/C=N/NC(=O)c2ccccc2NC(=O)c2cccs2)c(O)c(C(C)(C)C)c1 | 5.13 µM | 42.6 µM | 3 µM | > 100 µM | 1.11 µM | 19.1 µM | 0.365 µM | > 100 µM | 2.11 µM | 26.7 µM | 0.7 µM | > 100 µM | 0.895 µM | 11.2 µM | 3 µM | 46.2 µM | 1.84 µM | 30.4 µM | 4.44 µM | 80.5 µM
2 | COC(=O)c1ccc(/C=C(\c2ccc([N+](=O)[O-])o2)S(=O)(=O)c2ccc(NC(C)=O)cc2)o1 | – | 6.34 µM | – | 7.98 µM | – | 5.77 µM | – | 26.3 µM | – | 8.91 µM | – | 13.5 µM | – | 11.8 µM | – | 17.6 µM | – | 5.02 µM | – | 24 µM
3 | COc1cc(-c2nc3sc(C)cn3c2/C=C2\C(=O)Nc3ccccc32)c(Br)c(OC)c1OC | 31.5 µM | 74.6 µM | 44.2 µM | > 100 µM | 31.6 µM | 97 µM | 39.3 µM | > 100 µM | 26.1 µM | 78.5 µM | 19.5 µM | 43.2 µM | > 100 µM | > 100 µM | 39.1 µM | > 100 µM | 22.2 µM | 57.3 µM | 26.7 µM | 77 µM
4 | CC(C)(C)CC(C)(C)c1ccc(O)c(Cc2ccc(Cl)cc2Cl)c1 | 1.71 µM | 3.72 µM | 1.53 µM | 2.87 µM | 1.56 µM | 2.92 µM | 1.57 µM | 2.94 µM | 1.68 µM | 3.24 µM | 1.6 µM | 2.95 µM | 1.61 µM | 2.96 µM | 1.61 µM | 2.96 µM | 1.37 µM | 2.7 µM | 1.39 µM | 2.76 µM
5 | COC(=O)[C@]12CC[C@@H](C)[C@H](C)[C@@H]1C1=CC[C@@H]3[C@@]4(C)C[C@@H](OC(=O)/C=C/c5ccccc5)[C@H](O)[C@@](C)(CO)[C@@H]4[C@H](O)C[C@@]3(C)[C@]1(C)CC2 | 1.88 µM | 4.71 µM | 2.56 µM | 9.15 µM | 1.95 µM | 4.17 µM | 2.94 µM | 11.7 µM | 2.84 µM | 10.9 µM | 1.93 µM | 4.23 µM | 3.2 µM | 11.5 µM | 2.69 µM | 9.36 µM | 1.53 µM | 3.36 µM | 2.11 µM | 6.42 µM
6 | C#Cc1cccc(Nc2ncnc3ccc(OCCCCNCCS(C)(=O)=O)cc23)c1 | 8.66 µM | > 23.2 µM | > 19.6 µM | > 25 µM | 5.11 µM | 11.7 µM | 0.161 µM | > 25 µM | 4.88 µM | 9.47 µM | 4.26 µM | 8.63 µM | 7.56 µM | > 25 µM | 4.58 µM | 8.56 µM | 2.97 µM | 7.86 µM | 1.68 µM | 14.4 µM
7 | C=CC(=O)N1C[C@@H]2CCOc3c(Cl)c(-c4c(O)cccc4F)c(F)c4ncnc(c34)N2C[C@H]1C | 16.5 µM | 89.2 µM | 13.1 µM | 45.2 µM | 11.5 µM | 27.7 µM | 14.4 µM | 27.8 µM | 10.8 µM | 23.8 µM | 13.1 µM | 25.9 µM | 16.5 µM | 56.6 µM | 13.5 µM | 27.1 µM | 14.2 µM | 30.9 µM | 17 µM | 39 µM
8 | COc1cc([N+](=O)[O-])c(OC)cc1-c1nc2sc(C)cn2c1/C(N)=N/C(=N)N | 25.2 µM | 89.2 µM | 43.2 µM | > 100 µM | 16.1 µM | 45.1 µM | 15.1 µM | 50.9 µM | 13 µM | 45.2 µM | 28.3 µM | > 100 µM | 35.7 µM | > 100 µM | 7.02 µM | > 100 µM | 26.5 µM | > 100 µM | 24.1 µM | 88.3 µM
9 | Cc1ccc(C=C2C(Cl)=C(Cl)C(Cl)=C2Cl)cc1 | 0.636 µM | 7.56 µM | 1.49 µM | 3.22 µM | 1.22 µM | 4.76 µM | 1.4 µM | 4.28 µM | 0.933 µM | 2.62 µM | 1.09 µM | 2.41 µM | 0.418 µM | 9.45 µM | 1.25 µM | 2.64 µM | 0.322 µM | 1.01 µM | 1.33 µM | 4.35 µM

Source: PubChem BioAssay (NCI)
